Assays:
Assay type in all cases: physicochemical
[1] = 1-week stability tests (40° C./75% RH, 80° C., ambient light), XRPD and UPLC
Description: Compound 1 (Form I) was subjected to various different environmental conditions to assess stability.

[2] = Thermodynamic solubility of prepared salts
Procedure: Thermodynamic solubility studies were carried out as follows: 10 mg of prepared salts were suspended in pH 1, 4.5, 6.8 and un-buffered water (300 μL). The pH of the slurries was measured and adjusted accordingly using either 0.2M HCl solution or 0.2M sodium hydroxide solution. The slurries were agitated for 24 hours at ambient temperature using an incubator shaker.

[3] = Salt disproportionation studies; settings: deionized water, 24 h at ambient temperature
Procedure: Salt disproportionation studies were carried out as follows: 20 mg of prepared salts were weighed into a vial and 0.5 mL of deionized water was added. The samples were then agitated for 24 h at ambient temperature. The pH of the samples was taken pre- and post-agitation. Any solids recovered were submitted for XRPD analysis to determine any changes to form.

[4] = Hydration screen in acetone/water mixtures; settings: 24 hr
Procedure: Hydration screen was carried out as follows: 10 mg of prepared salts were suspended in several acetone/water mixtures of various water activities (low: aw=0.281, medium: aw=0.776 and high: aw=0.919) and agitated at ambient temperatures for 24 hr. Any recovered solids were submitted for XRPD analysis to determine any changes to form.

[5] = Gravimetric vapor sorption (GVS)
Procedure: Approximately 10-20 mg of sample was placed into a mesh vapor sorption balance pan and loaded into an IGASorp Moisture Sorption Analyzer balance by Hiden Analytical. […] After completion of the sorption cycle, the sample was dried using the same procedure to 0% RH, and finally taken back to the starting point of 40% RH. The weight change during the sorption/desorption cycles were plotted, allowing for the hygroscopic nature of the sample to be determined.

[6] = Dynamic vapor sorption (DVS)
Procedure: Approximately, 10 mg of sample was placed into a mesh vapor sorption balance pan and loaded into a DVS-1 dynamic vapor sorption balance by Surface Measurement Systems. The sample was subjected to a ramping profile from 40-90% relative humidity (RH) at 10% increments, maintaining the sample at each step until a stable weight had been achieved (99.5% step completion). After completion of the sorption cycle, the sample was dried using the same procedure to 0% RH and then a second sorption cycle back to 40% RH. The weight change during the sorption/desorption cycles were plotted, allowing for the hygroscopic nature of the sample to be determined. XRPD analysis was then carried out on any solid retained.

Row | SMILES | 1-week stability test: change in purity (UPLC) ([1]; 80° C.) | 1-week stability test: change in purity (UPLC) ([1]; ambient light) | Thermodynamic solubility in words ([2]; pH 1) | Solid recovered from thermodynamic solubility slurry (XRPD) ([2]; pH 4.5) | Thermodynamic solubility in words ([2]; pH 4.5) | Solid recovered from thermodynamic solubility slurry (XRPD) ([2]; pH 6.8) | Thermodynamic solubility in words ([2]; pH 6.8) | Solid recovered from thermodynamic solubility slurry (XRPD) ([2]; unbuffered water) | Thermodynamic solubility in words ([2]; unbuffered water) | Salt disproportionation: recovered material by XRPD [3] | Hydration study: recovered solid by XRPD ([4]; high water activity (aw=0.919)) | Hydration study: recovered solid by XRPD ([4]; low water activity (aw=0.281)) | also measured
1 | CS(=O)(=O)O.C[C@@H]1CCc2ncc(F)cc2[C@H]2CCCN2c2ccn3ncc(c3n2)C(=O)N1 [Compound 1 mesylate] | no change to purity | no change to purity | moderately soluble | mesylate salt | moderately soluble | free base | low solubility | free base | moderately soluble | no change to form | free base | a mixture of free base and salt | 1-week stability test: change in purity (UPLC) ([1]; 40° C./75% RH): no change to purity; Hydration study: recovered solid by XRPD ([4]; medium water activity (aw=0.776)): mesylate salt; Hygroscopicity, mass uptake by GVS ([5]; at 90% RH): about 32%; Crystalline form by XRPD after exposure to GVS humidity conditions ([5]; post-GVS XRPD): desolvate and become the mesylate form seen in the salt screen
2 | C[C@@H]1CCc2ncc(F)cc2[C@H]2CCCN2c2ccn3ncc(c3n2)C(=O)N1.O=S(=O)(O)c1ccccc1 [Compound 1 besylate] | no change to purity | no change to purity | highly soluble | an unknown form | moderately soluble | poorly crystalline free base | low solubility | poorly crystalline free base | moderately soluble | poorly crystalline free base | poorly crystalline besylate salt | poorly crystalline besylate salt | 1-week stability test: change to form (XRPD) ([1]; 40° C./75% RH): appears to be a mixture of besylate salt and something else; 1-week stability test: change to form (XRPD) ([1]; 80° C.): no change to form; 1-week stability test: change to form (XRPD) ([1]; ambient light): no change to form; Hygroscopicity, mass uptake by DVS ([6]; at 90% RH): about 0.7%; Crystalline form by XRPD after exposure to DVS humidity conditions ([6]; post-DVS XRPD): no changes in crystalline form
